# Measurements taken from patent publication US20250064773A1, “TARGETING ERO1 ALPHA WITH AURONE DERIVATIVES” (West Virginia University Board of Governors on behalf of …, priority 2021, published 2025).
# Assays:
# [1] = biological target: T1, purified human ERO1α (Homo sapiens, UniProt Q96HE7, C104A/C131A/C166A); experiment: Lineweaver-Burk enzyme kinetics with varying PDI (Amplex Red); type: biochemical; conditions: varying PDI and T151742 concentrations
# T1 construct: made in house
# T1 sequence (Q96HE7 22-468 C104A/C131A/C166A): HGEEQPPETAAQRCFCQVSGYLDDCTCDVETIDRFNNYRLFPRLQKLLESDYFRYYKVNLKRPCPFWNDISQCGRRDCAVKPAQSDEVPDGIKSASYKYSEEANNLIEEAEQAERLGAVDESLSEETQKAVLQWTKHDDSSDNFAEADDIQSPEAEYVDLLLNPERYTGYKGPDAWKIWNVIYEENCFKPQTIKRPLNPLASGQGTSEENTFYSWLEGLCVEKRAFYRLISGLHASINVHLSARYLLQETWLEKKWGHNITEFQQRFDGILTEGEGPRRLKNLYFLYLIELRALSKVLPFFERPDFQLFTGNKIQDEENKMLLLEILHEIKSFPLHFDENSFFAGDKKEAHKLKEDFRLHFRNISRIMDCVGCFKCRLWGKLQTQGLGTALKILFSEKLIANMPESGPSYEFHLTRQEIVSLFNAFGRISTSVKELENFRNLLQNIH
# [2] = test system: myeloma cells lines; experiment: MTT viability assay, myeloma cell lines; type: cell-based
# [3] = biological target: T2, recombinant ERO1α (Homo sapiens, UniProt Q96HE7, C104A/C131A/C166A); experiment: Surface plasma resonance (Biacore) binding; conditions: SPR
# T2 construct: made in house
# T2 sequence (Q96HE7 22-468 C104A/C131A/C166A): T1 sequence (Q96HE7 22-468 C104A/C131A/C166A)
# Procedure: Surface plasma resonance (SPR) was utilized as an orthogonal assay to confirm direct binding between T151742 and ERO1α. For the SPR assay, recombinant ERO1α was crosslinked to a C5 chip and varying concentrations of ligand T151742 were evaluated for detection of changes in refractive index, due to change in mass on the chip when ligand is bound to the protein. […] The relatively high Kd value is in part due to the fast off-rate.
# Cell Lines: PC-9 cell line used was obtained from Sigma Aldrich and grown in RPMI 1640 medium with 10% fetal bovine serum and 1% penicillin/streptomycin. HCC4006, U266, MM1.s, and Beas-2B cell lines were obtained from ATCC and cultured in either RPMI 1640 or DMEM with 10% fetal bovine serum and 1% penicillin/streptomycin. […] Plate was then read on the BioTek Cytation 5 at 530/590 nm. […] Plate was then read at 570 nm. Treated wells were all compared to DMSO control wells to calculate percent growth inhibition and the IC50 was calculated using GraphPad (log(inhibitor) vs growth inhibition). […] Images were then quantified using ImageJ. […] Cells were aliquoted at 1 million cells per PCR tube in PBS and heated in Bio-Rad T100 thermal cycler at indicated temperatures (RT, 46° C., 48° C., 50° C., 52° C., 54° C., 56°, 58° C., and 60° C.) for 3 minutes and aggregation temperature was determined by western blot analysis. […]
compound,measurement,setting,value
CN(C)c1ccc(/C=C2\Oc3cc(O)ccc3C2=O)cc1 [Compound T151742],mechanism of inhibition of ERO1α,[1],non-competitive (mixed) inhibitor
same,IC50,[2],7 to 9 µM
same,off-rate,[3],fast off-rate
